One compound from patent US20240180805A1, “COMPOSITION FOR INHIBITING WRINKLE” (YUKI GOSEI KOGYO CO., LTD., priority 2022, published 2024) can be followed below.

The subject of this assay is hyaluronic acid synthase (HAS2). To be noted: β-alanine 10 mM added twice, 24 h apart; total 48 h; relative to β-actin (ΔΔCt); FIG. 1.

The structures appear in SMILES notation.

For `NCCC(=O)O` [β-alanine], the “mRNA of hyaluronic acid synthase in dermal fibroblasts” value is recorded as “increased”.
